In BindingDB's records for doi:10.1021/jm030317k (Astrazeneca, 2004):
Each block holds one compound with its values, some of them ahead of it.

Legend:
[1] = biological target: T1, Vascular endothelial growth factor receptor 2 (Homo sapiens, UniProt P35968); experiment: VEGF-R Kinase Inhibition Assay; details: 25 °C
Protocol: An ELISA assay was used to determine the ability of inhibitor to inhibit VEGF-RRTK activity. The compounds were incubated with enzyme 20 min at room temperature, with 2uM ATP in 96-well plates coated with a poly(Glu, Ala, Tyr) 6:3:1 random copolymer substrate. Phosphorylated tyrosine was then detected by sequential in cubation with anti-phosphotyrosine antibody. IC50 data were interpolated by nonlinear regression using Microcal Origin software.

[2] = biological target: Proto-oncogene tyrosine-protein kinase Src (Homo sapiens, UniProt P12931); experiment: In Vitro Src Kinase Inhibition Test; details: pH 7.4; 22 °C
Chain of Proto-oncogene tyrosine-protein kinase Src (P12931 2-536 limits assumed): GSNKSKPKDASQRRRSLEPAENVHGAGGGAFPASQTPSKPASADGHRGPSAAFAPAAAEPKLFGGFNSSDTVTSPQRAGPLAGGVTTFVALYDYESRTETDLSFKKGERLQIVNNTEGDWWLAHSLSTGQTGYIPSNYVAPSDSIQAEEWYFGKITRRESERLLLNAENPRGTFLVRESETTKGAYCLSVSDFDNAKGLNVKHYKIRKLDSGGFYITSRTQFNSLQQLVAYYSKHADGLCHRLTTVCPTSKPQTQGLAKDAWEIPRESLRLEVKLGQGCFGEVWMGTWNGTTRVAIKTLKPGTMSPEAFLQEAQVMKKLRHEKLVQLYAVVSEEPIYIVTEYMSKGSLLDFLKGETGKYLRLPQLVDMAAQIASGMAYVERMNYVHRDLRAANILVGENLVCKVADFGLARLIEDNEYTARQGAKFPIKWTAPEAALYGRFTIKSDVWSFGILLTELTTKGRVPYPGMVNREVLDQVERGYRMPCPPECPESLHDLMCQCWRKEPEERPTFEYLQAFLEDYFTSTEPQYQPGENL
Description: (§1) This assay determines the ability of test compounds to inhibit Src kinase activity that catalyzes the transfer of the terminal phosphate to the immobilized poly (Glu,Tyr) substrate detected using anti-phosphotyrosine monoclonal antibody conjugated to alkaline phosphatase. IC50 values for compound enzyme inhibition were obtained using KC3 Kineticalc software (Bio-Tek Instruments) following subtraction of the blank values.

[3] = biological target: T1, Vascular endothelial growth factor receptor 2; experiment: In Vitro Src Kinase Inhibition Test
Description: as §1

[4] = biological target: Fibroblast growth factor receptor 1 (Homo sapiens, UniProt P11362); experiment: In Vitro Src Kinase Inhibition Test
Chain of Fibroblast growth factor receptor 1 (P11362 whole entry): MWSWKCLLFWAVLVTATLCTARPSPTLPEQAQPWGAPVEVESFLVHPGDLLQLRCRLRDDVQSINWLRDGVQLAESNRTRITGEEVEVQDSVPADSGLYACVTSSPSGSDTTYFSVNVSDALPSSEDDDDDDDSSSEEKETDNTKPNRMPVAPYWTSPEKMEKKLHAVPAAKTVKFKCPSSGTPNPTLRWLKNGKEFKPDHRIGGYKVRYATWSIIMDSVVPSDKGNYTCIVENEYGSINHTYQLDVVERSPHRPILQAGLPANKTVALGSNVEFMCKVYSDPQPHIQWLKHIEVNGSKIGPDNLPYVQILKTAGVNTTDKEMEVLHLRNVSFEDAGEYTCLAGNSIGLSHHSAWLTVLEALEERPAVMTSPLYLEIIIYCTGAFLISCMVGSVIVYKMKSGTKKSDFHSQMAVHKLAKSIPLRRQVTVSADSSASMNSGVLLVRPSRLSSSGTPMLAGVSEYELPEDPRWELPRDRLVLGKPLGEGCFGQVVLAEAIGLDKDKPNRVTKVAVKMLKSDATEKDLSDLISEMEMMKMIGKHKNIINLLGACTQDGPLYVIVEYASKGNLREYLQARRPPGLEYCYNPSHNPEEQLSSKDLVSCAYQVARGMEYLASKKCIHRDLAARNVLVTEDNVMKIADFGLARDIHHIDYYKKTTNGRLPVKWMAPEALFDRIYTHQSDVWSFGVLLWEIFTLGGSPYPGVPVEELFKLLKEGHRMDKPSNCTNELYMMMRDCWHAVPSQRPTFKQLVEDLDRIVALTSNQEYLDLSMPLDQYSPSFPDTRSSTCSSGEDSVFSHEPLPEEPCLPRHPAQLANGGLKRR
Description: as §1

[5] = biological target: Vascular endothelial growth factor receptor 1 (Homo sapiens, UniProt P17948); experiment: In Vitro Src Kinase Inhibition Test
Chain of Vascular endothelial growth factor receptor 1 (P17948 whole entry): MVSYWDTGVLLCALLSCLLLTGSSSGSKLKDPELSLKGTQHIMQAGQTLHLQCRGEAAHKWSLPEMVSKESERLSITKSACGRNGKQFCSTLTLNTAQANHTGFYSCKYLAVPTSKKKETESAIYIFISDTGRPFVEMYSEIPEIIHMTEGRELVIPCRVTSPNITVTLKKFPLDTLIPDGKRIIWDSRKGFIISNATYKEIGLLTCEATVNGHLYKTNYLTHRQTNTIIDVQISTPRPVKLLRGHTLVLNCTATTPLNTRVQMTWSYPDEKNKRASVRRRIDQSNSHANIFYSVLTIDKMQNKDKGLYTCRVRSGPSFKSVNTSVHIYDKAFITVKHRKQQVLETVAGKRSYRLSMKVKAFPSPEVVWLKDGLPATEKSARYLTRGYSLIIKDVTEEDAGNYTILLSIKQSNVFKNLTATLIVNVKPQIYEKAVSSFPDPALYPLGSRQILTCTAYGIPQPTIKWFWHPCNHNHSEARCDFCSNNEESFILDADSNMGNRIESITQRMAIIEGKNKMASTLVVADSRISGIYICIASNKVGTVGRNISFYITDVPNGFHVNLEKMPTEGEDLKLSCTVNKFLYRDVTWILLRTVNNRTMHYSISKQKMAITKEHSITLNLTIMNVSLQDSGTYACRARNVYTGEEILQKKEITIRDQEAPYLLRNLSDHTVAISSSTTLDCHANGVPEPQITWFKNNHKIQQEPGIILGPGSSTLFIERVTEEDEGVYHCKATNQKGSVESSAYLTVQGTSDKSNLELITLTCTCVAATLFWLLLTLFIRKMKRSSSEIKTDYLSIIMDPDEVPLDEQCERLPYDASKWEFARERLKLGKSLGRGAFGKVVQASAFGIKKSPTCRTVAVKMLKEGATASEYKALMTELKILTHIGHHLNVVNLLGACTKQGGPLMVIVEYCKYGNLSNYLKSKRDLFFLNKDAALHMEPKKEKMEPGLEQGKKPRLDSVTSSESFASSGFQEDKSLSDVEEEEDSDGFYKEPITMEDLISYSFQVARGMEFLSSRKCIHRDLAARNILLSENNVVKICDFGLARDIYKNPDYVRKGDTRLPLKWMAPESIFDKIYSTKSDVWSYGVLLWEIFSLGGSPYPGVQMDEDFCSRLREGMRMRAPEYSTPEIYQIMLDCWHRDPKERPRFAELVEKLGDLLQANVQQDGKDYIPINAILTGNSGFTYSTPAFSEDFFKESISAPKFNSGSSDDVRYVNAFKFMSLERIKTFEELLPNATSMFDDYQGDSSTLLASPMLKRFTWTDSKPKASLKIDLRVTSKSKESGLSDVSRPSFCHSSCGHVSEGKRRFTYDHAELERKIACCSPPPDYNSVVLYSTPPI
Description: as §1

T1 sequence (P35968 whole entry): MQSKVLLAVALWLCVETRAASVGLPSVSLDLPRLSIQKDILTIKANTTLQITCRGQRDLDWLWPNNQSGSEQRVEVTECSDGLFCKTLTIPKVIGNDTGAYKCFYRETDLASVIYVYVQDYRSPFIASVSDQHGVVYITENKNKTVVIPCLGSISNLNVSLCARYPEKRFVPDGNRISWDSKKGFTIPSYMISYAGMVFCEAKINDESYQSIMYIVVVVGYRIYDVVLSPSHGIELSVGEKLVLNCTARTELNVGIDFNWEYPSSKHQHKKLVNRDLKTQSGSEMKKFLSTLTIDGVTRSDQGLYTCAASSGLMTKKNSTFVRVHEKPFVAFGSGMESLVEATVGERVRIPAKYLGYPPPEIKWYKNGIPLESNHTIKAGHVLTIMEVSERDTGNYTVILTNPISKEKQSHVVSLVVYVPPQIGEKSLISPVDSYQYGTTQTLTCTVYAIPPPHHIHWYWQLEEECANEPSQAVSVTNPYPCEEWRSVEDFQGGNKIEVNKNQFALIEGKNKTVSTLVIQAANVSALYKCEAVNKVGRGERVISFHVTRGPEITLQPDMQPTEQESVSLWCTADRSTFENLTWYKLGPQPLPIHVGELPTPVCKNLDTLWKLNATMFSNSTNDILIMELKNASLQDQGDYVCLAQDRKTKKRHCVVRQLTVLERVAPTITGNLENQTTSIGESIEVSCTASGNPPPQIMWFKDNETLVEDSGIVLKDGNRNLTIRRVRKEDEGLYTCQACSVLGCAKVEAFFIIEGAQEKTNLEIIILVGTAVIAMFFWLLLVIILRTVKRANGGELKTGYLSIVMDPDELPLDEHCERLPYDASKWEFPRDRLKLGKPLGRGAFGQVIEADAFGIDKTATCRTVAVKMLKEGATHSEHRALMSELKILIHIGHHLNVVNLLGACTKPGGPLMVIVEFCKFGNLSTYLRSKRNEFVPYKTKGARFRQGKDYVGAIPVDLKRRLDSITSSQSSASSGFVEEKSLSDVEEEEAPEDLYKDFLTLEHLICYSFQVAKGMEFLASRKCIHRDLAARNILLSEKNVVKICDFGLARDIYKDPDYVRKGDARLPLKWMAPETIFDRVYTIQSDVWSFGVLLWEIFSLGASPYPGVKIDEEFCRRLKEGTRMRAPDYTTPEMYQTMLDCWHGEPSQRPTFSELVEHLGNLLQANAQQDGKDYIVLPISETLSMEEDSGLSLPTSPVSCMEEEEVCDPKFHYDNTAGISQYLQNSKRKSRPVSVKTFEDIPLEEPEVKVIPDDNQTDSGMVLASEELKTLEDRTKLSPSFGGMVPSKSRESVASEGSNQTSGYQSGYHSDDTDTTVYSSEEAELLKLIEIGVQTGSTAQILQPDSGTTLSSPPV

IC50 [1]: 0.67 µM | IC50 [2]: 0.01 µM
SMILES: COc1ccc(Cl)c(Nc2ncnc3cc(OCC4CCN(C)CC4)c(OC)cc23)c1 [AZD0530 analogue 35]

IC50 [3]: 21.7 µM
SMILES: COc1cc2c(Nc3c(Cl)ccc4c3OCO4)ncnc2cc1OCCCN1CCCCC1 [BMCL182776 Compound 1]

IC50 [4]: > 100 µM | IC50 [5]: > 100 µM
SMILES: COc1cc2c(Nc3c(Cl)ccc4c3OCO4)ncnc2cc1OCc1ccnc(C#N)c1 [4-[({4-[(5-chloro-2H-1,3-benzodioxol-4-yl)amino]-6-methoxyquinazolin-7-yl}oxy)methyl]pyridine-2-carbonitrile]
